According to article PMC2099433, “The binding site for neohesperidin dihydrochalcone at the human sweet taste receptor” (BMC Structural Biology, 2007):
Residue numbers refer to the chain shown, from its start. Where a SMILES comes first, the peptide text is derived from it.

How the values were obtained:
[1] = target: T1, hTAS1R2 + hTAS1R3 G804A^7.42 (Homo sapiens, UniProt Q7RTX0+Q8TE23, G804A); assay: Calcium response (FLIPR), hTAS1R3 mutant coexpressed with hTAS1R2; assay type: cell-based; settings: variant G804A^7.42; for Emax: read-out: maximal signal (% of wt)
T1 construct: expressed in transfected cells; host or cells: HEK293T cells stably expressing G16Gust44
T1 sequence (Q7RTX0 21-852 G804A): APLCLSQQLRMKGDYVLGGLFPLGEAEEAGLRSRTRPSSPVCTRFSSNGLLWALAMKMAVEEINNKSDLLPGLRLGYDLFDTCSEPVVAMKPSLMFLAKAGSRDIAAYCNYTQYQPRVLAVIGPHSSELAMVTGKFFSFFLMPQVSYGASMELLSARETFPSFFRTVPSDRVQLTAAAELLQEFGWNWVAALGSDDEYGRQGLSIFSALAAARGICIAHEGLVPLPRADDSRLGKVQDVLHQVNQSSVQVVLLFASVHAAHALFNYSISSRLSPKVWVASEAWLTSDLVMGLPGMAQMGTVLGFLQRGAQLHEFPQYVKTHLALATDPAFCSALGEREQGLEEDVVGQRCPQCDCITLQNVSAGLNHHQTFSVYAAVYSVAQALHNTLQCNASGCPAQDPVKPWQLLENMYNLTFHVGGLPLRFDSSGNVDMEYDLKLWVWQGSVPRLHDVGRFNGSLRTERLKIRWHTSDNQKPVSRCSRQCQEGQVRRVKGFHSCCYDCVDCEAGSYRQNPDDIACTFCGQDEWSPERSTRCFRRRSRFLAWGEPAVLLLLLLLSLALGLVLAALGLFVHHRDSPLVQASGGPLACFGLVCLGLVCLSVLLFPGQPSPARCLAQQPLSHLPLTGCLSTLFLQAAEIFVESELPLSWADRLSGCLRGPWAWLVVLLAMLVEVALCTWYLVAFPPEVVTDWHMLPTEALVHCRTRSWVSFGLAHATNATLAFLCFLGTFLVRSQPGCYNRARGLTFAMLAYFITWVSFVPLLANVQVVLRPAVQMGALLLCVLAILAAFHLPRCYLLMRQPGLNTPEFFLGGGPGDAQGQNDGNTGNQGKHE
T1 sequence (Q8TE23 20-839): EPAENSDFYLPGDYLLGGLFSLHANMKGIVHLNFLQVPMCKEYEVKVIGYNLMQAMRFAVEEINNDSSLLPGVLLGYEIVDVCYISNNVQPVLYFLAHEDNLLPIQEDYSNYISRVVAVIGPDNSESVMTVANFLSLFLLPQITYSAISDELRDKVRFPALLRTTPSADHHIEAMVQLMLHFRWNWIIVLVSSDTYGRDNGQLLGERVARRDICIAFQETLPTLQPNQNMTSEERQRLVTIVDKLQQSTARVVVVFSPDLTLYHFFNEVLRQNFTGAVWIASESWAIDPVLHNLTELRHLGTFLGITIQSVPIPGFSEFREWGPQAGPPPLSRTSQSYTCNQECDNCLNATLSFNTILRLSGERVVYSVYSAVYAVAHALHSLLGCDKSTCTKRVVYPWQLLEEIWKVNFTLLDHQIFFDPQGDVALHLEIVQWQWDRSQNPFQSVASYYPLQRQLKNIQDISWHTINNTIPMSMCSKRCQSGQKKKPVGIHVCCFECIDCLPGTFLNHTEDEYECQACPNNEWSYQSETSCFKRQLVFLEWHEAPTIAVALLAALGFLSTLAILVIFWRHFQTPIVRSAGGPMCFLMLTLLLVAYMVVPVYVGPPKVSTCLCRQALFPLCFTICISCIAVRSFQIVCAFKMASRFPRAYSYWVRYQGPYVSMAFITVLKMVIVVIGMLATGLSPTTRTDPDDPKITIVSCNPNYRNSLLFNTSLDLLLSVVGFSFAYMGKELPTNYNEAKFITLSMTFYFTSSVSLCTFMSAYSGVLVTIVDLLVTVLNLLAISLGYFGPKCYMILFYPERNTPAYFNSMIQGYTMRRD
Outline: (§1)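 Calcium mobilization was measured by FLIPR in Fluo4-AM-loaded HEK293T cells coexpressing G16Gust44 with the tagged receptor pair. Signals had mock responses removed and were given as ΔF/F.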

[2] = target: T2, hTAS1R2 + hTAS1R3 Y699F^4.60 (Homo sapiens, UniProt Q7RTX0+Q8TE23, Y699F); assay: as above; assay type: cell-based; settings: variant Y699F^4.60; for Emax: read-out: maximal signal (% of wt)
T2 construct: expressed in transfected cells; host or cells: HEK293T cells stably expressing G16Gust44
T2 sequence (Q7RTX0 21-852 Y699F): T1 sequence (Q7RTX0 21-852 G804A) with Y679F, A784G
T2 sequence (Q8TE23 20-839): T1 sequence (Q8TE23 20-839)
Outline: as §1

EC50 [1] | Emax [1] | EC50 [2] | Emax [2] | SMILES
1600 ± 200 µM | 44 ± 1% | 1200 ± 300 µM | 56 ± 2% | COC(=O)[C@H](Cc1ccccc1)NC(=O)[C@@H](N)CC(=O)O [aspartame] (HELM PEPTIDE1{D.F.[CO[*:1]]}$$$$V2.0)
1300 ± 500 µM | 53 ± 10% | 600 ± 400 µM | 72 ± 17% | COc1ccc(CCC(=O)c2c(O)cc(O[C@@H]3O[C@H](CO)[C@@H](O)[C@H](O)[C@H]3O[C@@H]3O[C@@H](C)[C@H](O)[C@@H](O)[C@H]3O)cc2O)cc1O [NHDC, neohesperidin dihydrochalcone]
